Literature values as cited in patent US12397068B2, “Structural design of a cranial nerve degeneration contrast agent precursors” (INSTITUTE OF NUCLEAR ENERGY RESEARCH, ATOMIC ENERGY …, priority 2022, dated 2025).

Legend:
[1] = in words only; background statement
[2] = tested on: α-synuclein relative to Aβ and Tau proteins; details: in vitro; in words only; background statement
[3] = molecular target: α-synuclein fibrils (Homo sapiens, UniProt P37840); details: in words only; background statement

Compound	in vitro stability [1]	affinity for α-synuclein [3]	specificity for α-synuclein relative to β-amyloid (Aβ) and Tau [2]
O=C1Nc2ccccc2C1=Cc1ccccc1			low specificity
CC[n+]1ccc(/C=C/C=C/c2ccc(N(C)C)cc2)c2ccccc21.[O-][Cl+3]([O-])([O-])[O-] [LDS 798]	low in vitro stability	moderate affinity	reasonable degree in vitro specificity
CN(C)c1ccc(/C=C/C=C/C2=[N+](C)C3=C(CCCC3)C2(C)C)cc1 [LDS 730]	low in vitro stability		reasonable degree in vitro specificity

More lines, main results first:

in vitro stability [1]	affinity for α-synuclein [3]	Compound	specificity for α-synuclein relative to β-amyloid (Aβ) and Tau [2]
low in vitro stability		COc1ccc2c(c1)Sc1cc([N+](=O)[O-])ccc1N2 [SIL5]	reasonable degree in vitro specificity
low in vitro stability		O=[N+]([O-])c1ccc2c(c1)Sc1cc(OCCF)ccc1N2 [SIL26]	reasonable degree in vitro specificity
low in vitro stability		O=[N+]([O-])c1ccc2c(c1)Sc1cc(OC/C=C/[125I])ccc1N2 [SIL23]	reasonable degree in vitro specificity
